Results on 7 compounds are retold here after ChEMBL document CHEMBL1201862, “PubChem BioAssay data set” (2004).

Common to all, as to assay: DTP human tumour cell line panel, 48 h
For experiment [1], the system named is HL-60.
The subject of experiment [2] is RPMI-8226.
The test system of experiment [3] is UO-31.
Experiment [4] concerns CCRF-CEM.
Experiment [5] has as its system OVCAR-8.
The test system of experiment [6] is Malme-3M.
Experiment [7] has as its system NCI-H226.
Experiment [8] deals with PC-3.
Experiment [9] concerns HCT-15.
Experiment [10] deals with SN12C.
The subject of experiment [11] is A549.
The test system of experiment [12] is MCF7.
The test system of experiment [13] is SW-620.
The test system of experiment [14] is MOLT-4.
Experiment [15] relates to CAKI-1.
The test system of experiment [16] is NCI-H522.
The test system of experiment [17] is T47D.
For experiment [18], the system named is U-251.
For experiment [19], the system named is A498.
Experiment [20] relates to HT-29.

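1) Cells in 96-well plates. 2) Compound, 48 h, 5 concentrations. 3) Linear interpolation between surrounding doses. 4) Unreached endpoint = highest concentration. Abbreviation: GI50, concentration required for 50% inhibition of growth.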 Activity calls are given as the source filed them. Rule as the data show it: active = GI50 up to about 1.1 µM and inactive = higher.

In the case of `COC(=O)CN(CC(=O)NCCNC(=O)OC(C)(C)C)C1CCCCC1N(CC(=O)OC)CC(=O)OC` (stereo not given), the GI50 in [1], in [2], in experiment [3], in experiment [4], in [5] and in [6] was > 100 µM (inactive) each time. For the same compound, the GI50 is 48 µM (inactive) in experiment [7]; > 100 µM (inactive) in experiment [8]; above 100 µM in experiment [9]; > 100 µM (inactive) in experiment [10]; > 100 µM (inactive) in [11]; > 100 µM (inactive) in experiment [12]. In addition, the GI50 in experiment [13], in experiment [14], in experiment [15], in experiment [16], in experiment [17] and in experiment [18] was > 100 µM (inactive) each time. The GI50 in experiment [19] and in experiment [20] was > 100 µM (inactive) each time.
With `O=C(CC(=O)Nc1ccccc1Cl)NNC(Sc1ccccc1)c1cc(/N=N/c2ccc(Br)cc2)ccc1O` (stereo not given), the GI50 in experiment [1] was 0.315 µM (active); in experiment [2], 1.23 µM (inactive); in experiment [3], 1.14 µM (inactive); in experiment [4] it was 0.409 µM (active); in experiment [5] it was 0.598 µM (active); in experiment [6] it was 2.12 µM (inactive). Further, the GI50 in experiment [7] is 1.67 µM (inactive); in experiment [8] it was 0.571 µM (active); in experiment [9], 0.679 µM; in experiment [10], 2.22 µM (inactive); in experiment [11], 3.08 µM (inactive); in [12], 0.681 µM (active). For the same compound, the GI50 is 0.69 µM (active) in experiment [13]; 0.321 µM (active) in experiment [14]; 1.46 µM (inactive) in experiment [15]; 4.07 µM (inactive) in experiment [16]; 2.02 µM (inactive) in experiment [17]; 1.59 µM (inactive) in experiment [18]. Further, the GI50 in experiment [19] was 2.39 µM (inactive); in experiment [20] it was > 10 µM (inactive).
`CCCCCCCCCCCCCCCCCCNc1ccn(C2OC(COP(=O)(O)OCC3OC(n4cc(C)c(=O)[nH]c4=O)CC3F)C(O)C2O)c(=O)n1` (stereo not given): the GI50 was 5.46 µM (inactive) in experiment [1]; 3.52 µM (inactive) in experiment [2]; 13.2 µM (inactive) in experiment [3]; 4.61 µM (inactive) in [4]; 8.51 µM (inactive) in [5]; 15 µM (inactive) in experiment [6]. For the same compound, the GI50 in experiment [7] is 37.8 µM (inactive); in experiment [8] it was 1.61 µM (inactive); in experiment [9], 6.01 µM; in experiment [10] it was 7.87 µM (inactive); in experiment [11], 11.2 µM (inactive); in experiment [12], 9.46 µM (inactive). Also, the GI50 in experiment [13] is 5.86 µM (inactive); in [14], 3.13 µM (inactive); in [15], 8.73 µM (inactive); in experiment [16], 4.29 µM (inactive); in experiment [17], 7.38 µM (inactive); in experiment [18], 7.26 µM (inactive). The GI50 in experiment [19] was 13.8 µM (inactive); in experiment [20] it was 7.69 µM (inactive).
For `NC1N=C(c2ccc(Cl)cc2)C2=C(N1)c1ccccc1CC2` (stereo not given), the GI50 is 2.81 µM (inactive) in experiment [1]; 2.66 µM (inactive) in experiment [2]; 32.7 µM (inactive) in experiment [3]; 3.93 µM (inactive) in experiment [4]; 25.6 µM (inactive) in experiment [5]; 10.3 µM (inactive) in [6]. The GI50 in experiment [7] was 14.4 µM (inactive); in experiment [8], 23.1 µM (inactive); in experiment [9], 3.58 µM; in [10], 19.9 µM (inactive); in experiment [11], 20.3 µM (inactive); in experiment [12], 6.55 µM (inactive). Besides, the GI50 is 10.8 µM (inactive) in experiment [13]; 3.17 µM (inactive) in experiment [14]; 76.4 µM (inactive) in experiment [15]; 4.07 µM (inactive) in [16]; 10.4 µM (inactive) in [17]; 25.6 µM (inactive) in experiment [18]. The GI50 in [19] is 49.5 µM (inactive); in experiment [20], 3.16 µM (inactive).
With `Clc1ccc(C2=Cc3nc2c(-c2ccccc2)c2ccc([nH]2)c(-c2ccccc2)c2nc(c(-c4ccccc4)c4ccc([nH]4)c3-c3ccccc3)C=C2)cc1`, the GI50 in [1], in experiment [2], in [3], in experiment [4], in experiment [5] and in [6] was > 62.5 µM (inactive) each time. Further, the GI50 in experiment [7] was > 62.5 µM (inactive); in experiment [8], > 62.5 µM (inactive); in [9], above 62.5 µM; in experiment [10], > 62.5 µM (inactive); in experiment [11], > 62.5 µM (inactive); in experiment [12] it was > 62.5 µM (inactive). In addition, the GI50 is > 62.5 µM (inactive) in experiment [13]; > 62.5 µM (inactive) in [14]; 13.9 µM (inactive) in [15]; > 62.5 µM (inactive) in experiment [16]; > 62.5 µM (inactive) in experiment [17]; > 62.5 µM (inactive) in experiment [18]. Also, the GI50 in experiment [19] and in [20] was > 62.5 µM (inactive) in each case.
For the compound `N=C(N)NS(=O)(=O)c1ccc(NC(=O)c2ccc3nc4ccccc4c(Nc4ccc(S(=O)(=O)N=C(N)N)cc4)c3c2)cc1`, the GI50 in experiment [1], in experiment [2], in [3], in experiment [4], in experiment [5] and in experiment [6] was > 100 µM (inactive) each time. Besides, the GI50 in experiment [7] is > 100 µM (inactive); in experiment [8], > 100 µM (inactive); in experiment [9] it was above 100 µM; in experiment [10] it was > 100 µM (inactive); in experiment [11] it was > 100 µM (inactive); in experiment [12], > 100 µM (inactive). Besides, the GI50 in experiment [13], in experiment [14], in experiment [15], in experiment [16], in [17] and in experiment [18] was > 100 µM (inactive) each time. Further, the GI50 in experiment [19] and in experiment [20] was > 100 µM (inactive) each time.
With `O=C(Cn1c(=O)oc2ccc(C(=O)c3ccccc3Cl)cc21)c1ccc([N+](=O)[O-])cc1`, the GI50 in [1] is 11.2 µM (inactive); in experiment [2], 9.51 µM (inactive); in [3], 23.6 µM (inactive); in [4], 4.29 µM (inactive); in [5] it was 24.7 µM (inactive); in experiment [6], 25.5 µM (inactive). Besides, the GI50 in experiment [7] was 34.2 µM (inactive); in experiment [8] it was 22.8 µM (inactive); in experiment [9] it was 17.7 µM; in experiment [10], 24.5 µM (inactive); in [11] it was 25.2 µM (inactive); in experiment [12], 22.9 µM (inactive). For the same compound, the GI50 in [13] was 26.8 µM (inactive); in experiment [14] it was 8.2 µM (inactive); in [15], 38.5 µM (inactive); in [16], 14.9 µM (inactive); in [17], 8.11 µM (inactive); in experiment [18], 29.9 µM (inactive). Moreover, the results for the GI50 in experiment [19] and in experiment [20] were 30.1 µM (inactive) and 24.2 µM (inactive), respectively.

As a reminder, the GI50 is the concentration that inhibits growth by half.
